Holding throughout (type): cell-based
The subject of series [1] is recombinant NL4-3 virus (nef section replaced with Renilla luciferase gene) in MT-2 cells. Description: HIV cell culture assay (antiviral activity, luciferase readout in infected MT-2 cells). As for the experimental part: HIV cell culture assay-MT-2 cells, 293T cells and the proviral DNA clone of NL4-3 virus were obtained from the NIH AIDS Research and Reference Reagent Program. MT-2 cells were propagated in RPMI 1640 media supplemented with 10% heat inactivated fetal bovine serum (FBS), 100 μg/ml penicillin G and up to 100 units/mL streptomycin. The 293T cells were propagated in DMEM media supplemented with 10% heat inactivated FBS, 100 μg/mL penicillin G and 100 μg/mL streptomycin. A recombinant NL4-3 proviral clone, in which a section of the nef gene was replaced with the Renilla luciferase gene, was used to make the reference virus used in these studies. The recombinant virus was prepared through transfection of the recombinant NL4-3 proviral clone into 293T cells using Transit-293 Transfection Reagent from Minis Bio LLC (Madison, WI). Supernatent was harvested after 2-3 days and the amount of virus present was titered in MT-2 cells using luciferase enzyme activity as a marker by measuring luciferase enzyme activity. Luciferase was quantitated using the EnduRen Live Cell Substrate from Promega (Madison, WI). Antiviral activities of compounds toward the recombinant virus were quantified by measuring luciferase activity in MT-2 cells infected for 4-5 days with the recombinant virus in the presence of serial dilutions of the compound.
The 50% effective concentration (EC50) was calculated by using the exponential form of the median effect equation where (Fa)=1/[1+(ED50/drug conc.)m] (Johnson V A, Byington R T. Infectivity Assay. In Techniques in HIV Research. ed. Aldovini A, Walker B D. 71-76. New York: Stockton Press. 1990).

The subject of series [2] is uninfected MT2 cells. Put plainly: Compound cytotoxicity, XTT-based colorimetric assay. The following applies: day 4, XTT assay. The procedure: (§1) Compound cytotoxicity and the corresponding CC50 values were determined using the same protocol as described in the antiviral assay except that uninfected cells were used. Cytotoxicity was assessed on day 4 in uninfected MT2 cells by using an XTT (2,3-bis[2-Methoxy-4-nitro-5-sulfophenyl]-2H-tetrazolium-5-carboxyanilide inner salt)-based colorimetric assay (Sigma-Aldrich, St Louis, Mo.).

Test in series [3]: as above
To be noted: human; uninfected MT2 cells, day 4, XTT assay. The procedure:
as §1
Background: Formazan colour is commonly taken as a measure of viable cells.

Where [4] appears, read: MT-2 cells infected for 4-5 days with recombinant NL4-3 Renilla luciferase virus, luciferase activity, read-out: EC50.

Where two headings read alike, the source gives them in different places. Where only a bound is given, the exact number is not on record here.

Results on eleven compounds are retold here after patent publication US11919897B2, “Inhibitors of human immunodeficiency virus replication” (VIIV HEALTHCARE UK (No. 5) LIMITED, priority 2018, dated 2024).

One may read the EC50 as the concentration that produces a half-maximal response. Broadly, the CC50 is the concentration giving 50% cytotoxicity. Lower therefore signals greater toxicity to the cells.

With “N—((S)-1-((3P)-3-(4-chloro-1-methyl-3-(methylsulfonamido)-1H-indazol-7-yl)-4-oxo-7-(pyrimidin-2-ylmethoxy)-3,4-dihydropyrido[2,3-d]pyrimidin-2-yl)-2-(3,5-difluorophenyl)ethyl)-2-((3bS,4aR)-3-(difluoromethyl)-5,5-difluoro-3b,4,4a,5-tetrahydro-1H-cyclopropa[3,4]cyclopenta[1,2-c]pyrazol-1-yl)acetamide [Example 9]”, the EC50 in series [1] (setting [4]) came to 0.03 nM. The compound further returned a CC50 in series [2] greater than 1000 nM.
For the compound `CCCCOCCOc1ccc2c(=O)n(-c3ccc(Cl)c4c(NS(C)(=O)=O)nn(C)c34)c([C@H](Cc3cc(F)cc(F)c3)NC(=O)Cn3nc(C(F)F)c4c3C(F)(F)[C@@H]3C[C@H]43)nc2n1` (atropisomer, axis not shown; (P)) [Example 27, N—((S)-1-(7-(2-butoxyethoxy)-(3P)-3-(4-chloro-1-methyl-3-(methylsulfonamido)-1H-indazol-7-yl)-4-oxo-3,4-dihydropyrido[2,3-d]pyrimidin-2-yl)-2-(3,5-difluorophenyl)ethyl)-2-((3bS,4aR)-3-(difluoromethyl)-5,5-difluoro-3b,4,4a,5-tetrahydro-1H-cyclopropa[3,4]cyclopenta[1,2-c]pyrazol-1-yl)acetamide], the EC50 in series [1] (Renilla, NL43) amounted to 0.041 nM. Besides, the CC50 at 4 days in series [3] was greater than 100 nM.
For `Cn1nc(NS(C)(=O)=O)c2c(Cl)ccc(-n3c([C@H](Cc4cc(F)cc(F)c4)NC(=O)Cn4nc(C(F)F)c5c4C(F)(F)[C@@H]4C[C@H]54)nc4nc(OCc5ccccc5)ccc4c3=O)c21` (atropisomer, axis not shown; (P)) [Example 26, N—((S)-1-(7-(benzyloxy)-(3P)-3-(4-chloro-1-methyl-3-(methylsulfonamido)-1H-indazol-7-yl)-4-oxo-3,4-dihydropyrido[2,3-d]pyrimidin-2-yl)-2-(3,5-difluorophenyl)ethyl)-2-((3bS,4aR)-3-(difluoromethyl)-5,5-difluoro-3b,4,4a,5-tetrahydro-1H-cyclopropa[3,4]cyclopenta[1,2-c]pyrazol-1-yl)acetamide], in that order: 0.1 nM and greater than 100 nM.
In the case of `Cn1nc(NS(C)(=O)=O)c2c(Cl)ccc(-n3c([C@H](Cc4cc(F)cc(F)c4)NC(=O)Cn4nc(C(F)F)c5c4C(F)(F)[C@@H]4C[C@H]54)nc4nc(OCCCS(C)(=O)=O)ccc4c3=O)c21` (atropisomer, axis not shown; (P)) [Example 20, N—((S)-1-((3P)-3-(4-chloro-1-methyl-3-(methylsulfonamido)-1H-indazol-7-yl)-7-(3-(methylsulfonyl)propoxy)-4-oxo-3,4-dihydropyrido[2,3-d]pyrimidin-2-yl)-2-(3,5-difluorophenyl)ethyl)-2-((3bS,4aR)-3-(difluoromethyl)-5,5-difluoro-3b,4,4a,5-tetrahydro-1H-cyclopropa[3,4]cyclopenta[1,2-c]pyrazol-1-yl)acetamide], the EC50 in series [1] (Renilla, NL43) was determined as 0.18 nM. For the same compound, the CC50 at 4 days in series [3] is greater than 500 nM.
For the compound “N—((S)-1-((3P)-3-(4-chloro-1-(2,2-difluoroethyl)-3-(methylsulfonamido)-1H-indazol-7-yl)-7-(2-cyclopropylethoxy)-4-oxo-3,4-dihydropyrido[2,3-d]pyrimidin-2-yl)-2-(3,5-difluorophenyl)ethyl)-2-((3bS,4aR)-3-(difluoromethyl)-5,5-difluoro-3b,4,4a,5-tetrahydro-1H-cyclopropa[3,4]cyclopenta[1,2-c]pyrazol-1-yl)acetamide [Example 22]”, in series [1] (setting [4]), the EC50 came out at 0.29 nM. In addition, the CC50 in series [2] was greater than 500 nM.
Take `CC(C)OCCOc1ccc2c(=O)n(-c3ccc(Cl)c4c(NS(C)(=O)=O)nn(C)c34)c([C@H](Cc3cc(F)cc(F)c3)NC(=O)Cn3nc(C(F)F)c4c3C(F)(F)[C@@H]3C[C@H]43)nc2n1` (atropisomer, axis not shown; (P)) [Example 4, N—((S)-1-((3P)-3-(4-chloro-1-methyl-3-(methylsulfonamido)-1H-indazol-7-yl)-7-(2-isopropoxyethoxy)-4-oxo-3,4-dihydropyrido[2,3-d]pyrimidin-2-yl)-2-(3,5-difluorophenyl)ethyl)-2-((3bS,4aR)-3-(difluoromethyl)-5,5-difluoro-3b,4,4a,5-tetrahydro-1H-cyclopropa[3,4]cyclopenta[1,2-c]pyrazol-1-yl)acetamide]: in series [1] (Renilla, NL43), the EC50 was less than 0.05 nM. This compound also yielded a CC50 at 4 days in series [3] greater than 1000 nM.
For `CC(C)COCCOc1ccc2c(=O)n(-c3ccc(Cl)c4c(NS(C)(=O)=O)nn(C)c34)c([C@H](Cc3cc(F)cc(F)c3)NC(=O)Cn3nc(C(F)F)c4c3C(F)(F)[C@@H]3C[C@H]43)nc2n1` (atropisomer, axis not shown; (P)) [Example 25, N—((S)-1-((3P)-3-(4-chloro-1-methyl-3-(methylsulfonamido)-1H-indazol-7-yl)-7-(2-isobutoxyethoxy)-4-oxo-3,4-dihydropyrido[2,3-d]pyrimidin-2-yl)-2-(3,5-difluorophenyl)ethyl)-2-((3bS,4aR)-3-(difluoromethyl)-5,5-difluoro-3b,4,4a,5-tetrahydro-1H-cyclopropa[3,4]cyclopenta[1,2-c]pyrazol-1-yl)acetamide], in that order: 0.054 nM and greater than 100 nM.
Take `Cn1nc(NS(C)(=O)=O)c2c(Cl)ccc(-n3c([C@H](Cc4cc(F)cc(F)c4)NC(=O)Cn4nc(C(F)F)c5c4C(F)(F)[C@@H]4C[C@H]54)nc4nc(OCCc5nccs5)ccc4c3=O)c21` (atropisomer, axis not shown; (P)) [Example 18, N—((S)-1-((3P)-3-(4-chloro-1-methyl-3-(methylsulfonamido)-1H-indazol-7-yl)-4-oxo-7-(2-(thiazol-2-yl)ethoxy)-3,4-dihydropyrido[2,3-d]pyrimidin-2-yl)-2-(3,5-difluorophenyl)ethyl)-2-((3bS,4aR)-3-(difluoromethyl)-5,5-difluoro-3b,4,4a,5-tetrahydro-1H-cyclopropa[3,4]cyclopenta[1,2-c]pyrazol-1-yl)acetamide]: in series [1] (Renilla, NL43), the EC50 came out at 0.038 nM. The same compound had a CC50 at 4 days in series [3] greater than 500 nM.
In the same order, the values of `Cn1nc(NS(C)(=O)=O)c2c(Cl)ccc(-n3c([C@H](Cc4cc(F)cc(F)c4)NC(=O)Cn4nc(C(F)F)c5c4C(F)(F)[C@@H]4C[C@H]54)nc4nc(OCCOC5CC5)ccc4c3=O)c21` (atropisomer, axis not shown; (P)) [Example 29, N—((S)-1-((3P)-3-(4-chloro-1-methyl-3-(methylsulfonamido)-1H-indazol-7-yl)-7-(2-cyclopropoxyethoxy)-4-oxo-3,4-dihydropyrido[2,3-d]pyrimidin-2-yl)-2-(3,5-difluorophenyl)ethyl)-2-((3bS,4aR)-3-(difluoromethyl)-5,5-difluoro-3b,4,4a,5-tetrahydro-1H-cyclopropa[3,4]cyclopenta[1,2-c]pyrazol-1-yl)acetamide] are 0.034 nM and greater than 100 nM.
In the same order, the values of `CO[C@H](C)COc1ccc2c(=O)n(-c3ccc(Cl)c4c(NS(C)(=O)=O)nn(C)c34)c([C@H](Cc3cc(F)cc(F)c3)NC(=O)Cn3nc(C(F)F)c4c3C(F)(F)[C@@H]3C[C@H]43)nc2n1` [Example 31, N—((S)-1-((3P)-3-(4-chloro-1-methyl-3-(methylsulfonamido)-1H-indazol-7-yl)-7-((R)-2-methoxypropoxy)-4-oxo-3,4-dihydropyrido[2,3-d]pyrimidin-2-yl)-2-(3,5-difluorophenyl)ethyl)-2-((3bS,4aR)-3-(difluoromethyl)-5,5-difluoro-3b,4,4a,5-tetrahydro-1H-cyclopropa[3,4]cyclopenta[1,2-c]pyrazol-1-yl)acetamide] are 0.019 nM and greater than 100 nM.
In the same order, the values of `C[C@H](Oc1ccc2c(=O)n(-c3ccc(Cl)c4c(NS(C)(=O)=O)nn(C)c34)c([C@H](Cc3cc(F)cc(F)c3)NC(=O)Cn3nc(C(F)F)c4c3C(F)(F)[C@@H]3C[C@H]43)nc2n1)C1CCCC1` (atropisomer, axis not shown; (P)) [Example 23, N—((S)-1-((3P)-3-(4-chloro-1-methyl-3-(methylsulfonamido)-1H-indazol-7-yl)-7-((S)-1-cyclopentylethoxy)-4-oxo-3,4-dihydropyrido[2,3-d]pyrimidin-2-yl)-2-(3,5-difluorophenyl)ethyl)-2-((3bS,4aR)-3-(difluoromethyl)-5,5-difluoro-3b,4,4a,5-tetrahydro-1H-cyclopropa[3,4]cyclopenta[1,2-c]pyrazol-1-yl)acetamide] are 0.17 nM and greater than 500 nM.
